Assay [1] concerns HAP1 MTAP-deleted cell line. In words: SDMA in-cell western assay, HAP1 MTAP-deleted. The conditions noted are these: for IC50: Homo sapiens, HAP1, SDMA in-cell western, HAP1 MTAP-deleted; for MTAP intact/deleted ratio: IC50 ratio HAP1 MTAP-intact / HAP1 MTAP-deleted, SDMA in-cell western. The assay is classed as cell-based. In outline:
(§1)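 MTAP-null vs endogenous-MTAP HAP1 isogenic cells; in-cell western SDMA readout; IC50 per line.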

Assay [2] concerns HAP1 MTAP-deleted cell line. In words: Viability assay, MTAP-deleted cell line. The settings on record: Homo sapiens, read-out: HAP1 MTAP deleted viability. In kind it is cell-based. From the text: Table 1 additionally indicates IC50 values in a viability assay for the MTAP-deleted cell line (column 10), indicating the effect of treatment with compound on cell survival.
The test system of assay [3] is HAP1 MTAP-intact cell line. Briefly: SDMA in-cell western assay, HAP1 MTAP-intact. The assay is classed as cell-based. The settings on record: Homo sapiens, HAP1, SDMA in-cell western, HAP1 MTAP-intact; read-out: MTAP HAP1 intact IC50. In a few lines:
as §1

In assay [4] the target is T1, PRMT5 (Homo sapiens, UniProt O14744).
T1 construct: purchased Viva (custom protein)
In words: PRMT5 biochemical IC50 assay with SAM as cofactor. The settings on record: PRMT5, SAM as cofactor; read-out: SAM IC50.

For assay [5], the target named is T1, PRMT5. In words: PRMT5 biochemical IC50 assay with MTA as cofactor. The settings on record: PRMT5, MTA as cofactor; read-out: MTA IC50.
Assay [6] concerns the target T1, PRMT5. Briefly: PRMT5 biochemical IC50 assay with no cofactor. The settings on record: PRMT5, no cofactor. From the text: Table 1 indicates IC50 values (μM) against PRMT5 for exemplary compounds in the presence of SAM as cofactor, with no cofactor, and with MTA as cofactor, respectively (columns 4-6). […] Ki values can be calculated from the IC50 values as described in the Examples section. As detailed in the Examples section, for the assay performed in the presence of SAM, IC50=Ki×1.5 (Ki=IC50/1.5).

The mark [7] stands for this setting: read-out: HAP1 MTAP deleted IC50.
[8] abbreviates: HAP1, viability assay, MTAP-deleted cell line.
The mark [9] stands for this setting: read-out: HAP 1 MTAP deleted IC50.
[10] abbreviates: read-out: No Cofactor/ rel IC50.
The mark [11] stands for this setting: HAP1, viability IC50, MTAP-deleted cell line.
Setting [12] is: HAP1, viability assay, HAP1 MTAP-deleted.

T1 sequence (O14744 whole entry): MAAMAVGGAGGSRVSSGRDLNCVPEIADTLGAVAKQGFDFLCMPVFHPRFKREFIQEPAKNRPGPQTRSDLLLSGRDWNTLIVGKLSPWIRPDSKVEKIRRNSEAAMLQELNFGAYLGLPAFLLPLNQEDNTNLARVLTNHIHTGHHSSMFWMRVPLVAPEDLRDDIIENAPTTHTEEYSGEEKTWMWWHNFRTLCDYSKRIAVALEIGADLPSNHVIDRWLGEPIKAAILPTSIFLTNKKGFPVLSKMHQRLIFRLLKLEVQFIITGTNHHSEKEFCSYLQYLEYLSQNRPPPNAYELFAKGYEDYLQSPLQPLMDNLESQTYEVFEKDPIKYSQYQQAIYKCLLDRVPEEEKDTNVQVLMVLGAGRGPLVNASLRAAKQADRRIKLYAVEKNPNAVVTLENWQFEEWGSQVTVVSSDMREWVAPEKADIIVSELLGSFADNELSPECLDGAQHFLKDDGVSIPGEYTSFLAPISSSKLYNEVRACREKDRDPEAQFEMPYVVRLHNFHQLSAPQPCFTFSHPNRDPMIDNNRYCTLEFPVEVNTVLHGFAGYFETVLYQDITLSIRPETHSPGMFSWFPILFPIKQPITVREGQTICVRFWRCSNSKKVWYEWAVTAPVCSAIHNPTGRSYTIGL
T1 sequence (Q9BQA1 whole entry partner): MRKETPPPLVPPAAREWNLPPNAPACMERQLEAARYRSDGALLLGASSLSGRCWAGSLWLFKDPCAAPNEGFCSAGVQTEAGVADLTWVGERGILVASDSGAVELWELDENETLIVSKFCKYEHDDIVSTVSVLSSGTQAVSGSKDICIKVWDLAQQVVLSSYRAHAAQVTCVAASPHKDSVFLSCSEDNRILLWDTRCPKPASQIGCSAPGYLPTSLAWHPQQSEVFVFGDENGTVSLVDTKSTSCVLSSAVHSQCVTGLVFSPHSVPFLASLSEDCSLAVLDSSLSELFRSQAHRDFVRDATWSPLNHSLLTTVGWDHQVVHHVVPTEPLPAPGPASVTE

`C[C@H]1CC[C@H](C2CCC(F)(F)CC2)N(C(=O)C(=O)Nc2cncc(C(N)=O)c2)C1` (single isomer, unassigned) [Compound 320]: the IC50 in assay [1] (setting [7]) is above 1000 nM; in assay [2] (setting [8]) it was above 10000 nM; in assay [3], above 1000 nM; on PRMT5 [4], 50 to 500 nM; at PRMT5 [5] it was 50 to 500 nM; at PRMT5 [6] (read-out: No Cofactor/rel IC50) it was above 500 nM. The MTAP intact/deleted ratio entry in assay [1] is recorded as “B (an IC50 ratio greater than or equal to 3 fold but lower than 10 fold)”.
For the molecule `CCc1cc(NC(=O)C(=O)N2C[C@@H](C)CC[C@@H]2c2cnc3c(c2)CCC(=O)N3)cnc1N` (racemic) [Compound 916, rac-N-(6-Amino-5-ethyl-3-pyridyl)-2-[(2S,5R)-5-methyl-2-(7-oxo-6,8-dihydro-5H-1,8-naphthyridin-3-yl)-1-piperidyl]-2-oxo-acetamide], the IC50 in assay [1] (setting [9]) is below 100 nM; in assay [2] (setting [8]) it was 1000 to 10000 nM; in assay [3], above 1000 nM; on PRMT5 [4] it was above 500 nM; at PRMT5 [5] it was 50 to 500 nM; at PRMT5 [6] (read-out: No Cofactor/rel IC50) it was 50 to 500 nM. The MTAP intact/deleted ratio entry in assay [1] is “A (an IC50 ratio greater than or equal to 10 fold)”.
As to `Cc1cc(NC(=O)C(=O)N2C[C@H](C(N)=O)CC[C@H]2c2ccccc2)cnc1N` (racemic) [Compound 315], the IC50 in assay [1] (setting [7]) is 100 to 1000 nM; in assay [2] (setting [8]) it was above 10000 nM; in assay [3], above 1000 nM; at PRMT5 [4], 50 to 500 nM; at PRMT5 [5] it was 50 to 500 nM; on PRMT5 [6] (read-out: No Cofactor/rel IC50), 50 to 500 nM. The MTAP intact/deleted ratio entry in assay [1] is recorded as “A (an IC50 ratio greater than or equal to 10 fold)”.
Regarding `COc1ncc(NC(=O)C(=O)N2C[C@@H](C)CC[C@@H]2c2ccc3cn(C4CCN(C)CC4)nc3c2)cc1C(N)=O` (racemic) [Compound 1299, 2-Methoxy-5-[[2-oxo-2-[rac-(2R,5S)-5-methyl-2-[2-(1-methyl-4-piperidyl)indazol-6-yl]-1-piperidyl]acetyl]amino]pyridine-3-carboxamide], the IC50 was below 100 nM in assay [1] (setting [9]); below 1000 nM in assay [2] (HAP1, viability, HAP1 MTAP-deleted cell line); below 100 nM in assay [3]; below 50 nM at PRMT5 [4]; below 50 nM at PRMT5 [5]; below 50 nM at PRMT5 [6] (setting [10]). Further, in assay [1], the “MTAP intact/deleted ratio” value was “B (an IC50 ratio greater than or equal to 3 fold but lower than 10 fold)”.
Regarding `C[C@@H]1CC[C@@H](c2ccc(NS(C)(=O)=O)cc2)N(C(=O)C(=O)Nc2cncc(C(N)=O)c2)C1` (single isomer, unassigned) [Compound 469], the IC50 is above 1000 nM in assay [1] (setting [7]); above 10000 nM in assay [2] (setting [8]); above 1000 nM in assay [3]; above 500 nM on PRMT5 [4]; above 500 nM on PRMT5 [5]; above 500 nM on PRMT5 [6] (read-out: No Cofactor/rel IC50). Also, in assay [1], the MTAP intact/deleted ratio result is “C (an IC50 ratio of less than 3 fold)”.
Regarding `Cc1cccc([C@@H]2CC[C@@H](C)CN2C(=O)C(=O)Nc2cncc(C(N)=O)c2)c1` (single isomer, unassigned) [Compound 227], the IC50 in assay [1] (setting [7]) was above 1000 nM; in assay [2] (setting [8]), above 10000 nM; in assay [3], above 1000 nM; on PRMT5 [4], above 500 nM; on PRMT5 [5], above 500 nM; at PRMT5 [6] (read-out: No Cofactor/rel IC50) it was above 500 nM. Moreover, the MTAP intact/deleted ratio result in assay [1] is on record as “C (an IC50 ratio of less than 3 fold)”.
With `Cc1cc(NC(=O)C(=O)N2C[C@H](C)C[C@@H](C)[C@H]2c2ccccc2)cnc1N` (single isomer, unassigned) [Compound 339], the IC50 is 100 to 1000 nM in assay [1] (setting [7]); above 10000 nM in assay [2] (setting [8]); above 1000 nM in assay [3]; 50 to 500 nM at PRMT5 [4]; below 50 nM on PRMT5 [5]; 50 to 500 nM at PRMT5 [6] (read-out: No Cofactor/rel IC50). For the same molecule, the MTAP intact/deleted ratio result in assay [1] is on record as “A (an IC50 ratio greater than or equal to 10 fold)”.
`Cc1cc(NC(=O)C(=O)N2C[C@H](C)CC[C@H]2c2cccc(S(N)(=O)=O)c2)cnc1N` (racemic) [Compound 688, N-(6-amino-5-methyl-3-pyridyl)-2-[(2S,5R)-5-methyl-2-(3-sulfamoylphenyl)-1-piperidyl]-2-oxo-acetamide]: the IC50 in assay [1] (setting [9]) is 100 to 1000 nM; in assay [2] (setting [11]), 1000 to 10000 nM; in assay [3], above 1000 nM; on PRMT5 [4], 50 to 500 nM; on PRMT5 [5], below 50 nM; on PRMT5 [6] (read-out: No Cofactor/rel IC50), 50 to 500 nM. The MTAP intact/deleted ratio entry in assay [1] is on record as “A (an IC50 ratio greater than or equal to 10 fold)”.
On to `Cc1cncc(NC(=O)C(=O)N2C[C@@H](C)CC[C@@H]2c2cccc(C)c2)c1` (single isomer, unassigned) [Compound 11], for which the IC50 is above 1000 nM in assay [1] (setting [9]); above 10000 nM in assay [2] (setting [8]); above 1000 nM in assay [3]; above 500 nM on PRMT5 [4]; above 500 nM on PRMT5 [5]; above 500 nM at PRMT5 [6] (setting [10]). For the same molecule, in assay [1], the “MTAP intact/deleted ratio” value is recorded as “C (an IC50 ratio of less than 3 fold)”.
`Cc1c(NC(=O)C(=O)N2C[C@@H](C)CC[C@@H]2c2ccc(O)cc2)cnc(N)c1C` (single isomer, unassigned) [Compound 383]: the IC50 was below 100 nM in assay [1] (setting [7]); below 1000 nM in assay [2] (setting [8]); above 1000 nM in assay [3]; 50 to 500 nM at PRMT5 [4]; below 50 nM at PRMT5 [5]; 50 to 500 nM on PRMT5 [6] (read-out: No Cofactor/rel IC50). The MTAP intact/deleted ratio entry in assay [1] was “A (an IC50 ratio greater than or equal to 10 fold)”.
Take `CCc1cc(NC(=O)C(=O)N2C[C@H](C)CC[C@H]2c2ccc(N3CCN(C(C)C)CC3)cc2)cnc1N` (single isomer, unassigned) [Compound 1234]: the IC50 is above 1000 nM in assay [1] (setting [7]); 1000 to 10000 nM in assay [2] (setting [8]); above 1000 nM in assay [3]; above 500 nM on PRMT5 [4]; above 500 nM on PRMT5 [5]; above 500 nM at PRMT5 [6] (read-out: No Cofactor/rel IC50).
For the molecule `Cc1cncc(NC(=O)C(=O)N2C[C@H](C)CC[C@H]2c2cccc(C)c2)c1` (single isomer, unassigned) [Compound 10], the IC50 in assay [1] (setting [9]) is above 1000 nM; in assay [2] (setting [8]) it was above 10000 nM; in assay [3], above 1000 nM; on PRMT5 [4], 50 to 500 nM; on PRMT5 [5], 50 to 500 nM; at PRMT5 [6] (setting [10]), 50 to 500 nM. Further, the “MTAP intact/deleted ratio” value in assay [1] is reported as “B (an IC50 ratio greater than or equal to 3 fold but lower than 10 fold)”.
With `C[C@@H]1CC[C@@H](c2ccccc2)N(C(=O)C(=O)Nc2cncc(C(N)=O)c2)[C@H]1C` (single isomer, unassigned) [Compound 482], the IC50 was below 100 nM in assay [1] (setting [7]); below 1000 nM in assay [2] (setting [8]); above 1000 nM in assay [3]; 50 to 500 nM at PRMT5 [4]; below 50 nM on PRMT5 [5]; 50 to 500 nM at PRMT5 [6] (read-out: No Cofactor/rel IC50). For the same molecule, in assay [1], the MTAP intact/deleted ratio entry is “A (an IC50 ratio greater than or equal to 10 fold)”.
Consider `Cc1cc(NC(=O)C(=O)N2C[C@H](C)CC[C@H]2c2ccc(S(C)(=O)=O)cc2)cnc1N` (racemic) [Compound 643, N-(6-amino-5-methyl-3-pyridyl)-2-[(2R,5S)-5-methyl-2-(4-methylsulfonylphenyl)-1-piperidyl]-2-oxo-acetamide], for which the IC50 in assay [1] (setting [9]) is 100 to 1000 nM; in assay [2] (setting [11]) it was 1000 to 10000 nM; in assay [3], above 1000 nM; at PRMT5 [4] it was 50 to 500 nM; on PRMT5 [5] it was 50 to 500 nM; at PRMT5 [6] (read-out: No Cofactor/rel IC50) it was 50 to 500 nM. The MTAP intact/deleted ratio entry in assay [1] is recorded as “C (an IC50 ratio of less than 3 fold)”.
With `Cc1cc(NC(=O)C(=O)N2CC3(CCC2c2ccc(F)cc2)CC3)cnc1N` (stereo not shown) [Compound 753], the IC50 is 100 to 1000 nM in assay [1] (setting [7]); 1000 to 10000 nM in assay [2] (setting [12]); above 1000 nM in assay [3]; 50 to 500 nM on PRMT5 [4]; below 50 nM on PRMT5 [5]; 50 to 500 nM at PRMT5 [6] (read-out: No Cofactor/rel IC50). The MTAP intact/deleted ratio entry in assay [1] is “A (an IC50 ratio greater than or equal to 10 fold)”.
Turning to `C[C@@H]1CN(C(=O)C(=O)Nc2cncc(C(N)=O)c2)[C@@H](c2ccc(F)c(F)c2)CC1(F)F` (single isomer, unassigned) [Compound 706], the IC50 in assay [1] (setting [7]) was above 1000 nM; in assay [2] (setting [12]), above 10000 nM; in assay [3] it was above 1000 nM; at PRMT5 [4] it was above 500 nM; at PRMT5 [5] it was above 500 nM; on PRMT5 [6] (read-out: No Cofactor/rel IC50), above 500 nM. In addition, the MTAP intact/deleted ratio result in assay [1] is “B (an IC50 ratio greater than or equal to 3 fold but lower than 10 fold)”.
As for `COc1ncc(NC(=O)C(=O)N2C[C@@H](C)CC[C@@H]2c2ccc(NS(C)(=O)=O)cc2)cc1C(N)=O` (single isomer, unassigned) [Compound 850], the IC50 is above 1000 nM in assay [1] (setting [7]); above 10000 nM in assay [2] (setting [12]); above 1000 nM in assay [3]; above 500 nM at PRMT5 [4]; above 500 nM on PRMT5 [5]; above 500 nM at PRMT5 [6] (read-out: No Cofactor/rel IC50). Moreover, the MTAP intact/deleted ratio entry in assay [1] was “C (an IC50 ratio of less than 3 fold)”.
